From US8476303B2, “N-aminopyrrolylmethyltetrahydropyridines as anti-cancer agents” (Florida A&M University Board of Trustees, priority 2011, dated 2013)

Key:
Format in all cases: cell-based
[1] = system: MCF-7 estrogen receptor-positive breast cancer cells; assay: CELLTITER-GLO luminescent cell viability assay, MCF-7; details: MCF-7 cells, 72 h at 37° C.
Description: (§1) The derivatives were examined for their cytotoxic effects on MCF-7 estrogen receptor-positive breast cancer cells, MDA-MB-231 estrogen receptor-negative breast cancer cell line, and Ishikawa cells, using the CELLTITER-GLO (CTG)® luminescent cell viability assay. All the compounds are tested in the three cell lines. Different concentration of compounds, ranging from about 0.01 nM to about 100,000 nM were delivered to 5×10^3 cells per well, which were then incubated for three days at 37° C., followed by the CTG assay.
(§2) Compounds Redda-GM-2-50, Redda-GM-2-55, and Redda-GM-2-58 were tested for their cytotoxic effects on MCF-7 estrogen receptor-positive breast cancer cells, MDA-MB-231 estrogen receptor-negative breast cancer cell line, and Ishikawa cells, using the CELLTITER-GLO® luminescent cell viability assay (Promega, Madison, Wis.) following the manufacturer's instruction.
(§3) CELLTITER-GLO® is a homogeneous method based on the quantification of ATP, which is an indicator of metabolically active cells. In this assay, the number of viable cells in culture is determined based on the quantification of ATP present, which signals the presence of metabolically active cells. Damaged cells are not detected as the ATP leaked from these cells is quickly consumed by ATPases that are also released upon damage). The amount of ATP is determined using a system based on luciferase and D-luciferin resulting in light generation.
(§4) The cell lines were plated in 13, 96 well plates at a density of 5000 cells/well in total volumes of 50 μL in phenol-red free medium and incubated for overnight. […]
(§5) Drug-exposed cells were incubated or 72 h at 37° C. in a 5% CO2 incubator, after which the plates were removed for CELLTITER-GLO® assay and equilibrated at room temperature for 30 min. […] Luminescence results were read on TriLux Luminometer. […] Data were expressed as percentage of untreated control (i.e. treatment value-blank/vehicle value blank), mean±SE for three replications.

[2] = system: MDA-MB-231 estrogen receptor-negative breast cancer cell line; assay: CELLTITER-GLO luminescent cell viability assay, MDA-MB-231; details: MDA-MB-231 cells, 72 h at 37° C.
Description: as §1, §2, §3, §4, §5

Ishikawa cells = assay: CELLTITER-GLO luminescent cell viability assay, Ishikawa; details: 72 h at 37° C.
Description: as §1, §2, §3, §4, §5

| Substance | IC50 [1] [µM] | IC50 [2] [µM] | IC50 (Ishikawa cells) [µM] |
| --- | --- | --- | --- |
| 3-((1H-pyrrol-1-yl)methyl)-1-(4-methylphenylsulfonamido)pyridinium Ylide [Redda-GM-2-55] | 31.8 | 83.6 | 78.5 |
| 3-((1H-pyrrol-1-yl)methyl)-1-(phenylsulfonimido)pyridinium Ylide [Redda-GM-2-50] | 47 | 44 | 28 |
| 3-((1H-pyrrol-1-yl)methyl)-1-(4-methoxyphenylsulfonamido)pyridinium Ylide [Redda-GM-2-58] | 49 | 53 | 28 |
